This passage reports IC50 results from patent US9540384B2, “Pyrrolidino heterocycles” (Hoffmann-La Roche Inc., priority 2012, dated 2017).

Sequence of human PDE10A full length (Q9Y233 other isoform, or with tags, fused parts or gaps): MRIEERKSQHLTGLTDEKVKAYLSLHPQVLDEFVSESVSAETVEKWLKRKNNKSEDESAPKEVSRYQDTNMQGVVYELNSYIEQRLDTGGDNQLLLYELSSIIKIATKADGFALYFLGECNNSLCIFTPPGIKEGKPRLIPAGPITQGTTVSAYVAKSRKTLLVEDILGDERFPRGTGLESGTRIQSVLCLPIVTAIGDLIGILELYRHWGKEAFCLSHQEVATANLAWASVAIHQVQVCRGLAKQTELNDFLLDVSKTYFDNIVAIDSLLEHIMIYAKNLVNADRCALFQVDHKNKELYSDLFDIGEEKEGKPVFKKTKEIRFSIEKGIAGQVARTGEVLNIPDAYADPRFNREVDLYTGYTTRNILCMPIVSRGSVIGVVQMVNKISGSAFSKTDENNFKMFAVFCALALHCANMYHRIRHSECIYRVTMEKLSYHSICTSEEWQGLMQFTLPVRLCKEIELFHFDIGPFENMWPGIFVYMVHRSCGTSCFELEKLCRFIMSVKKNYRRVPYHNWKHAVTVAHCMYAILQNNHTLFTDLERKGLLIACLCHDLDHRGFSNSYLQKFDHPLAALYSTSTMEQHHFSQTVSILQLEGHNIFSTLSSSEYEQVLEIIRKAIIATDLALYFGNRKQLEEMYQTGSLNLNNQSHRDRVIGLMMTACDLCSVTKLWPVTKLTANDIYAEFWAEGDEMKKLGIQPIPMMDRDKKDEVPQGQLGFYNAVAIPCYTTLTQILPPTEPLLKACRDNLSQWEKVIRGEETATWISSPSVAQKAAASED

This assay concerns the target human PDE10A full length (Homo sapiens (Human), UniProt Q9Y233). Put plainly: human PDE10A full length Scintillation Proximity Assay (SPA). The format is biochemical. The note with it: PDE10A enzyme, 50 nM cGMP + 50 nM [3H]-cGMP, 20 minutes at room temperature. On the procedure:
The following test was carried out in order to determine the activity of the compounds of the present invention. PDE10 activity of the compounds of the present invention was determined using a Scintillation Proximity Assay (SPA)-based method similar to the one previously described (Fawcett, L. et al., Proc Natl Acad Sci USA (2000) 97(7):3702-3707).
The human PDE10A full length assay was performed in 96-well micro titer plates. The reaction mixture of 50 μl contained 20 mM HEPES pH=7.5/10 mM MgCl2/0.05 mg/ml BSA (Sigma cat. #A-7906), 50 nM cGMP (Sigma, cat. #G6129) and 50 nM [3H]-cGMP (GE Healthcare, cat. #TRK392 S.A. 13.2 Ci/mmol), 3.75 ng/well PDE10A enzyme (Enzo Life Science, Lausen, Switzerland cat #SE-534) with or without a specific test compound. A range of concentrations of the potential inhibitor was used to generate data for calculating the concentration of inhibitor resulting in 50% of the effect (e.g. IC50, the concentration of the competitor inhibiting PDE10A activity by 50%). Non-specific activity was tested without the enzyme. The reaction was initiated by the addition of the substrate solution (cGMP and [3H]-cGMP) and allowed to progress for 20 minutes at room temperature. The reaction was terminated by adding 25 μl of YSi-SPA scintillation beads (GE Healthcare, cat. #RPNQ0150) in 18 mM zinc sulphate solution (stop reagent). After 1 h under shaking, the plate was centrifuged one minute at 170 g to allow beads to settle. Afterwards, radioactive counts were measured on a Perkin Elmer TopCount Scintillation plate reader.
In the case of `Cc1ncc(C)n2nc(/C=C/c3cccc(N4CCCC4)n3)nc12` [Example 43, (E)-5,8-Dimethyl-2-(2-(6-(pyrrolidin-1-yl)pyridin-2-yl)vinyl)[1,2,4]triazolo[1,5-a]pyrazine], the IC50 came out at 0.012 µM. `c1cc(COc2cc(N3CCOCC3)nc(-c3ccn[nH]3)n2)nc(N2CCCC2)c1` [Example 23, 4-[2-(2H-Pyrazol-3-yl)-6-(6-pyrrolidin-1-yl-pyridin-2-ylmethoxy)-pyrimidin-4-yl]-morpholine]: the IC50 stood at 1.08 µM.

Regarding `Cc1nc2ccccc2nc1OCc1cccc(N2CCCCC2)n1` [Example 15, 2-Methyl-3-((6-(piperidin-1-yl)pyridin-2-yl)methoxy)quinoxaline], the IC50 stood at 1.68 µM. For the compound `CN(C)c1nc(CCc2cccc(N3CCC(CO)C3)n2)nc2ccc(Cl)cc12` (centres unmarked) [Example 33, (1-(6-(2-(6-Chloro-4-(dimethylamino)quinazolin-2-yl)ethyl)pyridin-2-yl)pyrrolidin-3-yl)methanol], the IC50 was 0.15 µM. On to `Cc1nc2nc(CCc3cccc(N4CCCC4)n3)[nH]c(=O)c2n1C` [Example 28, 7,8-Dimethyl-2-(2-(6-(pyrrolidin-1-yl)pyridin-2-yl)ethyl)-1H-purin-6(7H)-one], for which the IC50 came out at 2.73 µM.
